Eight molecules from patent US9174998B2, “(6S,9aS)-N-benzyl-6-[(4-hydroxyphenyl)methyl]-4,7-dioxo-8-({6-[3-(piperazin-1-yl)azetidin-1-yl]pyridin-2-yl}methyl)-2-(prop-2-en-1-yl)-octahydro-1H-pyrazino[2,1-c][1,2,4]triazine-1-carboxamide compound” (Eisai R&D Management Co., Ltd., priority 2013, dated 2015) can be followed below.

The test system of one data set is Wnt signal. Nature of the data set: Detection of Wnt signal (TOPglow luciferase reporter, LiCl-stimulated). It counts as cell-based. Particulars: Homo sapiens; HEK293 clone carrying pNeo-TOP reporter; LiCl stimulation; luciferase luminescence; read-out: Test Example 1 IC50 (concentration required for inhibiting the Wnt signal activity by 50%). On the procedure:
pcDNA3.1(+) (invitrogen) was cleaved with restriction enzymes BglII and NotI, and an adapter BEHKS having a sequence shown below (containing restriction enzyme sites BglII, EcoRI, HindIII, KpnI, SacI and NotI) was inserted thereinto, thereby producing a plasmid pNeo-HKS.
Subsequently, a fragment having a length of about 2700 bp (containing a Wnt-responsive sequence and a luciferase gene), which was prepared by cleaving from a TOPglow plasmid contained in a TOPglow/FOPglow TCF Reporter Kit (upstate Catalog#17-366) with restriction enzymes HindIII and KpnI, was inserted between HindIII and KpnI in pNeo-HKS, thereby producing a plasmid pNeo-TOP. The plasmid pNeo-TOP was introduced into human fetus-derived renal cell strain HEK293, then a compound was selected using G418, and then a cell clone strain was established by a limiting dilution method. The cell clone strain was subjected to a Wnt signal detection test.
The cell clone strain was subcultured in a D-MEM glucose-rich culture medium (Wako Pure Chemical Industries, Ltd.) containing 10% FBS, and cells in a growth phase were used in the test. Cells were collected using trypsin-EDTA, the number of the cells was counted, and then the cells were suspended in a D-MEM glucose-rich culture medium containing 10% FBS so that the number of cells became 2×10^5 cells/mL. The cell suspension was added to a 96-well cell culture plate (Greiner Bio-One Co., Ltd., product number: 655083) in an amount of 0.1 mL/well and then cultured overnight in a 5% CO2 incubator (37° C.). After the culturing, a substance to be tested, which was dissolved in DMSO, was diluted with a D-MEM glucose-rich culture medium containing 10% of FBS and 80 mM of LiCl to produce a sample solution. The sample solution (0.1 mL) was added to each well and then cultured in a 5% CO2 incubator (37° C.) […]. Six hours after the addition of the sample solution, a supernatant was removed from each well, and then 50 μL of Bright-Glo™ Luciferase substrate (Promega, product number: E2620) was added thereto. The plate was put on a plate mixer for several seconds, and then the emission of light from each well was measured using a EnVision™ Multilabel plate reader (PerkinElmer Co., Ltd.). The Wnt signal activation rate (%) of each well was determined, and a concentration (IC50) which is required for inhibiting the Wnt signal activity of a substance of interest by 50% was calculated, wherein the luminosity of a well to which a sample solution was not added and LiCl was added was defined as a 100% Wnt signal activity and the luminosity of a well to which either of a sample solution or LiCl was not added was defined as a 0% Wnt signal activity.

Data set [1] can be described thus: Evaluation of solubility (DMSO stock into PBS, HPLC-UV). It counts as physicochemical. The following applies: Dulbecco's phosphate-buffered saline pH 7, room temperature, about 15 minutes shaking, values greater than 200 μM regarded as 200 μM, read-out: Test Example 3 solubility. On the procedure: To 0.25 mL of a test solution a mentioned below was added 2.5 μL of a DMSO solution having a compound concentration of 20 mM. The resultant solution was shaken at room temperature for about 15 minutes (the conditions for the shaking are mentioned below). Subsequently, a supernatant was collected by a suction filtration under a reduced pressure. A DMSO solution having a compound concentration of 200 μM was used as a standard solution, and the concentration of a compound in a filtrate which was quantified by a HPLC-UV method was employed as a solubility (rounded off to the whole number). In this evaluation, since a value 200 μM became the upper limit operationally, all of quantification values greater than 200 μM were regarded as 200 μM.
Test solution: GIBCO (registered trade name) Dulbecco's phosphate-buffered saline (pH 7, Life Technologies Corporation)
Conditions for shaking: a microplate shaker N-704 (Nissinrika Corporation), speed 6

Data set [2] can be described thus: PAMPA test (parallel artificial membrane permeability assay). It counts as in vitro ADME. The following applies: phosphate buffer pH 6.8, about 200 μM, about 5 hours, room temperature, read-out: Test Example 4 membrane permeation coefficient Pe. On the procedure: A test solution (see below) was stirred while shaking at room temperature for about 5 hours using a 96-well PAMPA plate (BD Biosciences) in which a lipid had been precoated onto a polyvinylidene fluoride (PVDF) film to evaluate the membrane permeation coefficient Pe (cm/s) of each compound dissolved in the test solution (concentration: about 200 μM) upon the transport of the compound from a donor side to an acceptor side through a lipid membrane. The Pe value was calculated in accordance with equations 1 and 2, and the concentration of the compound on the donor side and the acceptor side was measured by a HPLC-UV method. In 0.3 mL of the test solution on the donor side is contained about 1% (v/v) of DMSO, since 3 μL of a DMSO solution containing the compound at a concentration of 20 mM was added to the test solution.
Test solution: a phosphate buffer solution having a pH value of 6.8 (90 mM of phosphate, 48 mM of NaCl, 5.4 mM of KCl)
Conditions for stirring: a multishaker MS-300 (AS ONE Corporation), 350 rpm
[formula] CD(t): compound concentration in donor well at time t CA(t): compound concentration in acceptor well at time t VD: donor well volume (0.3 mL) VA: acceptor well volume (0.2 mL) A: filter area (0.3 cm^2)

The nature of data set [3]: Evaluation of metabolic stability. It counts as in vitro ADME, human. The following applies: 0.2 mg/mL HLM, 0.1 μM test substance, 15 minutes at 37° C., with vs without NADPH production. On the procedure: A test substance was dissolved in DMSO so that the concentration of the resultant solution became 20 mM, and the solution was diluted with DMSO so that the concentration of the resultant solution became 1 mM. The metabolic stability of the test substance was evaluated using a human liver microsome (HLM) in which human liver was pooled. An assay buffer solution contained 0.2 mg/mL of HLM, a 0.1 M of phosphate potassium buffer solution (pH 7.4), 0.1 mM of EDTA, 0.33 mM of NADP+, 8 mM of glucose-6-phosphate, 0.1 U/mL of glucose-6-phosphate dehydrogenase, 6 mM of MgCl2, 0.1 μM of a test substance (final concentration in DMSO: 0.01%) in 0.15 mL of the final incubation volume. Fifteen minutes after the initiation of the reaction at 37° C., 0.15 mL of a acetonitrile/methanol mixed solution (7:3, by volume) was added to the solution to terminate the reaction. After centrifugation, the resultant supernatant was analyzed by LC-MSMS, peak areas were compared under the presence or absence of the production of NADPH, and the residual ratio of the test substance was calculated.

The mark [4] stands for this setting: aqueous buffer, kinetic from dmso stock.

≈ marks a conversion by molar mass, not a printed value. Like-named read-outs stand apart in the source and are kept apart here.

Regarding `C=CCN1CC(=O)N2[C@@H](Cc3ccc(O)cc3F)C(=O)N(Cc3cccc(N4CC(N5CCN(CC)[C@@H](C)C5)C4)n3)C[C@@H]2N1C(=O)NCc1ccccc1` [Example 20, (6S,9aS)-N-Benzyl-8-((6-(3-((3S)-4-ethyl-3-methylpiperazin-1-yl)azetidin-1-yl)pyridin-2-yl)methyl)-6-((2-fluoro-4-hydroxyphenyl)methyl)-4,7-dioxo-2-(prop-2-en-1-yl)-octahydro-1H-pyrazino[2,1-c][1,2,4]triazine-1-carboxamide], the IC50 in the data set with Wnt signal was found to be 61 nM. The solubility in data set [1] (setting [4]) is 197 µM (≈ 146 µg/mL). Also, the Papp in data set [2] was determined as 2.17 ×10⁻⁶ cm/s. Further, in data set [3], the “Test Example 2 residual ratio of the test substance” value (from here on “Test Example 2 residual ratio”) is 23%.
For `C=CCN1CC(=O)N2[C@@H](Cc3ccc(O)cc3)C(=O)N(Cc3ccc(F)c(N4CC(N5CCN(C)[C@H](C)C5)C4)n3)C[C@@H]2N1C(=O)NCc1ccccc1` [Example 24, (6S,9aS)-N-Benzyl-8-((6-(3-((3R)-3,4-dimethylpiperazin-1-yl)azetidine-1-yl)-5-fluoropyridin-2-yl)methyl)-6-((4-hydroxyphenyl)methyl)-4,7-dioxo-2-(prop-2-en-1-yl)-octahydro-1H-pyrazino[2,1-c][1,2,4]triazine-1-carboxamide], in the data set with Wnt signal, the IC50 came to 77 nM. The solubility in data set [1] was 200 µM (≈ 145 µg/mL). In addition, the Papp in data set [2] was 1.91 ×10⁻⁶ cm/s. The “Test Example 2 residual ratio” value in data set [3] is recorded as 26%.
On to `C=CCN1CC(=O)N2[C@@H](Cc3c(F)cc(O)cc3F)C(=O)N(Cc3cccc(N4CC(N5CCN(C)CC5)C4)n3)C[C@@H]2N1C(=O)NCc1ccccc1` [Example 14, (6S,9aS)-N-Benzyl-6-((2,6-difluoro-4-hydroxyphenyl)methyl)-8-((6-(3-(4-methylpiperazin-1-yl)azetidin-1-yl)pyridin-2-yl)methyl)-4,7-dioxo-2-(prop-2-en-1-yl)-octahydro-1H-pyrazino[2,1-c][1,2,4]triazine-1-carboxamide], for which the IC50 with Wnt signal turned out to be 270 nM. Also, in data set [1] (setting [4]), the solubility turned out to be 197 µM (≈ 144 µg/mL). Moreover, the Papp in data set [2] is 0.39 ×10⁻⁶ cm/s. Besides, in data set [3], the “Test Example 2 residual ratio” value worked out at 69%.
Turning to `C=CCN1CC(=O)N2[C@@H](Cc3ccc(O)cc3)C(=O)N(Cc3cccc(N4CC(N5CCN(C)C[C@@H]5C)C4)n3)C[C@@H]2N1C(=O)NCc1ccccc1` [Example 6, (6S,9aS)-N-Benzyl-8-((6-(3-((2S)-2,4-dimethylpiperazin-1-yl)azetidin-1-yl)pyridin-2-yl)methyl)-6-((4-hydroxyphenyl)methyl)-4,7-dioxo-2-(prop-2-en-1-yl)-octahydro-1H-pyrazino[2,1-c][1,2,4]triazine-1-carboxamide], the IC50 with Wnt signal turned out to be 250 nM. Moreover, the solubility in data set [1] (setting [4]) is 195 µM (≈ 138 µg/mL). In addition, the Papp in data set [2] is 1.27 ×10⁻⁶ cm/s. Moreover, in data set [3], the “Test Example 2 residual ratio” value was found to be 55%.
As for `C=CCN1CC(=O)N2[C@@H](Cc3ccc(O)cc3F)C(=O)N(Cc3cccc(N4CC(N5CCN(C)[C@@H](C)C5)C4)n3)C[C@@H]2N1C(=O)NCc1ccccc1` [Example 4, (6S,9aS)-N-Benzyl-8-((6-(3-((3S)-3,4-dimethylpiperazin-1-yl)azetidin-1-yl)pyridin-2-yl)methyl)-6-((2-fluoro-4-hydroxyphenyl)methyl)-4,7-dioxo-2-(prop-2-en-1-yl)-octahydro-1H-pyrazino[2,1-c][1,2,4]triazine-1-carboxamide], the IC50 in the data set with Wnt signal is 60 nM. In addition, in data set [1] (setting [4]), the solubility was 199 µM (≈ 144 µg/mL). Also, the Papp in data set [2] was found to be 2.03 ×10⁻⁶ cm/s. In data set [3], the “Test Example 2 residual ratio” value is reported as 44%.
On to `C=CCN1CC(=O)N2[C@@H](Cc3ccc(O)cc3F)C(=O)N(Cc3ccc(F)c(N4CC(N(C)CCN(C)C)C4)n3)C[C@@H]2N1C(=O)NCc1ccccc1` [Reference Example 6, (6S,9aS)-N-Benzyl-8-((6-(3-((2-(dimethylamino)ethyl)(methyl)amino)azetidin-1-yl)-5-fluoropyridin-2-yl)methyl)-6-((2-fluoro-4-hydroxyphenyl)methyl)-4,7-dioxo-2-(prop-2-en-1-yl)-octahydro-1H-pyrazino[2,1-c][1,2,4]triazine-1-carboxamide], for which, in the data set on Wnt signal, the IC50 is 190 nM. Also, the solubility in data set [1] (setting [4]) turned out to be 190 µM (≈ 139 µg/mL). The Papp in data set [2] was determined as 1.7 ×10⁻⁶ cm/s. Besides, in data set [3], the “Test Example 2 residual ratio” value is given as 28%.
Turning to `C=CCN1CC(=O)N2[C@@H](Cc3ccc(O)cc3F)C(=O)N(Cc3cccc(N4CC(N5CC[C@@H](N(C)C)C5)C4)n3)C[C@@H]2N1C(=O)NCc1ccccc1` [Reference Example 2, (6S,9aS)-N-Benzyl-8-((6-(3-((3R)-3-(dimethylamino)pyrrolidin-1-yl)azetidin-1-yl)pyridin-2-yl)methyl)-6-((2-fluoro-4-hydroxyphenyl)methyl)-4,7-dioxo-2-(prop-2-en-1-yl)-octahydro-1H-pyrazino[2,1-c][1,2,4]triazine-1-carboxamide], the IC50 in the data set on Wnt signal was found to be 330 nM. In data set [1] (setting [4]), the solubility came out at 195 µM (≈ 142 µg/mL). Besides, in data set [2], the Papp turned out to be 0.65 ×10⁻⁶ cm/s. Further, the “Test Example 2 residual ratio” value in data set [3] was found to be 51%.
For `C=CCN1CC(=O)N2[C@@H](Cc3c(F)cc(O)cc3F)C(=O)N(Cc3cccc(N4CC(N5CCN(CC)CC5)C4)n3)C[C@@H]2N1C(=O)NCc1ccccc1` [Example 13, (6S,9aS)-N-Benzyl-6-((2,6-difluoro-4-hydroxyphenyl)methyl)-8-((6-(3-(4-ethylpiperazin-1-yl)azetidin-1-yl)pyridin-2-yl)methyl)-4,7-dioxo-2-(prop-2-en-1-yl)-octahydro-1H-pyrazino[2,1-c][1,2,4]triazine-1-carboxamide], in the data set with Wnt signal, the IC50 was determined as 140 nM. Besides, the solubility in data set [1] came out at 200 µM (≈ 149 µg/mL). Besides, the Papp in data set [2] was found to be 0.52 ×10⁻⁶ cm/s. For the same molecule, the “Test Example 2 residual ratio” value in data set [3] turned out to be 56%.
